Measurements: PubChem BioAssay (NCI)
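Each compound was tested at five concentrations against cells in 96-well plates for 48 hours. Here, GI50 denotes the concentration required for 50% inhibition of growth. The concentration for full growth arrest is given as TGI.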

What was measured:
Assay in all cases: NCI anticancer screen, dose series, 48 h
786-0 renal = tested on: 786-0 renal
A498 renal = tested on: A498 renal
A549 NSCLC = tested on: A549 NSCLC
ACHN renal = tested on: ACHN renal
CAKI-1 renal = tested on: CAKI-1 renal
CCRF-CEM leukemia = tested on: CCRF-CEM leukemia
COLO 205 colon = tested on: COLO 205 colon
DU-145 prostate = tested on: DU-145 prostate
EKVX NSCLC = tested on: EKVX NSCLC
HCT-116 colon = tested on: HCT-116 colon
HCT-15 colon = tested on: HCT-15 colon
HL-60(TB) leukemia = tested on: HL-60(TB) leukemia
HOP-62 NSCLC = tested on: HOP-62 NSCLC
HS 578T breast = tested on: HS 578T breast
HT29 colon = tested on: HT29 colon
IGROV1 ovarian = tested on: IGROV1 ovarian
K-562 leukemia = tested on: K-562 leukemia
KM12 colon = tested on: KM12 colon
LOX IMVI melanoma = tested on: LOX IMVI melanoma
M14 melanoma = tested on: M14 melanoma
MALME-3M melanoma = tested on: MALME-3M melanoma
MCF7 breast = tested on: MCF7 breast
MDA-MB-231 breast = tested on: MDA-MB-231 breast
MDA-MB-435 = tested on: MDA-MB-435
MDA-N = tested on: MDA-N
MOLT-4 leukemia = tested on: MOLT-4 leukemia
NCI-H226 lung = tested on: NCI-H226 lung
NCI-H23 lung = tested on: NCI-H23 lung
NCI-H460 lung = tested on: NCI-H460 lung
NCI-H522 lung = tested on: NCI-H522 lung
NCI/ADR-RES ovarian = tested on: NCI/ADR-RES ovarian
OVCAR-3 ovarian = tested on: OVCAR-3 ovarian
OVCAR-4 ovarian = tested on: OVCAR-4 ovarian
OVCAR-5 ovarian = tested on: OVCAR-5 ovarian
OVCAR-8 ovarian = tested on: OVCAR-8 ovarian
PC-3 prostate = tested on: PC-3 prostate
RPMI-8226 leukemia = tested on: RPMI-8226 leukemia
RXF 393 renal = tested on: RXF 393 renal
SF-268 CNS = tested on: SF-268 CNS
SF-295 CNS = tested on: SF-295 CNS
SF-539 CNS = tested on: SF-539 CNS
SK-MEL-2 melanoma = tested on: SK-MEL-2 melanoma
SK-MEL-28 melanoma = tested on: SK-MEL-28 melanoma
SK-MEL-5 melanoma = tested on: SK-MEL-5 melanoma
SK-OV-3 ovarian = tested on: SK-OV-3 ovarian
SN12C renal = tested on: SN12C renal
SNB-19 CNS = tested on: SNB-19 CNS
SNB-75 CNS = tested on: SNB-75 CNS
SR leukemia = tested on: SR leukemia
SW-620 colon = tested on: SW-620 colon
TK-10 renal = tested on: TK-10 renal
U251 CNS = tested on: U251 CNS
UACC-257 melanoma = tested on: UACC-257 melanoma
UACC-62 melanoma = tested on: UACC-62 melanoma
UO-31 renal = tested on: UO-31 renal

COc1cccc(Nc2nc(NNC(=O)Cc3ccccc3)nc(NNC(=O)c3ccncc3)n2)c1
GI50 (786-0 renal): > 100 µM
TGI (786-0 renal): > 100 µM
TGI (A498 renal): > 100 µM
GI50 (A549 NSCLC): > 100 µM
TGI (A549 NSCLC): > 100 µM
TGI (ACHN renal): > 100 µM
GI50 (CAKI-1 renal): > 100 µM
TGI (CAKI-1 renal): > 100 µM
GI50 (CCRF-CEM leukemia): > 100 µM
TGI (CCRF-CEM leukemia): > 100 µM
GI50 (COLO 205 colon): > 100 µM
TGI (COLO 205 colon): > 100 µM
GI50 (DU-145 prostate): > 100 µM
TGI (DU-145 prostate): > 100 µM
GI50 (EKVX NSCLC): > 100 µM
TGI (EKVX NSCLC): > 100 µM
TGI (HCT-116 colon): > 100 µM
GI50 (HCT-15 colon): > 100 µM
TGI (HCT-15 colon): > 100 µM
TGI (HL-60(TB) leukemia): > 100 µM
GI50 (HOP-62 NSCLC): > 100 µM
TGI (HOP-62 NSCLC): > 100 µM
GI50 (HS 578T breast): > 100 µM
TGI (HS 578T breast): > 100 µM
TGI (HT29 colon): > 100 µM
GI50 (IGROV1 ovarian): > 100 µM
TGI (IGROV1 ovarian): > 100 µM
GI50 (K-562 leukemia): > 100 µM
TGI (K-562 leukemia): > 100 µM
TGI (KM12 colon): > 100 µM
TGI (LOX IMVI melanoma): > 100 µM
TGI (M14 melanoma): > 100 µM
GI50 (MALME-3M melanoma): > 100 µM
TGI (MALME-3M melanoma): > 100 µM
GI50 (MCF7 breast): > 100 µM
TGI (MCF7 breast): > 100 µM
GI50 (MDA-MB-231 breast): > 100 µM
TGI (MDA-MB-231 breast): > 100 µM
TGI (MDA-MB-435): > 100 µM
GI50 (MDA-N): > 100 µM
TGI (MDA-N): > 100 µM
TGI (MOLT-4 leukemia): > 100 µM
TGI (NCI-H226 lung): > 100 µM
GI50 (NCI-H23 lung): > 100 µM
TGI (NCI-H23 lung): > 100 µM
GI50 (NCI-H460 lung): > 100 µM
TGI (NCI-H460 lung): > 100 µM
TGI (NCI-H522 lung): > 100 µM
GI50 (NCI/ADR-RES ovarian): > 100 µM
TGI (NCI/ADR-RES ovarian): > 100 µM
TGI (OVCAR-3 ovarian): > 100 µM
GI50 (OVCAR-4 ovarian): > 100 µM
TGI (OVCAR-4 ovarian): > 100 µM
TGI (OVCAR-5 ovarian): > 100 µM
GI50 (OVCAR-8 ovarian): > 100 µM
TGI (OVCAR-8 ovarian): > 100 µM
TGI (PC-3 prostate): > 100 µM
GI50 (RPMI-8226 leukemia): > 100 µM
TGI (RPMI-8226 leukemia): > 100 µM
TGI (RXF 393 renal): > 100 µM
GI50 (SF-268 CNS): > 100 µM
TGI (SF-268 CNS): > 100 µM
TGI (SF-295 CNS): > 100 µM
GI50 (SF-539 CNS): > 100 µM
TGI (SF-539 CNS): > 100 µM
TGI (SK-MEL-2 melanoma): > 100 µM
TGI (SK-MEL-28 melanoma): > 100 µM
GI50 (SK-MEL-5 melanoma): > 100 µM
TGI (SK-MEL-5 melanoma): > 100 µM
GI50 (SK-OV-3 ovarian): > 100 µM
TGI (SK-OV-3 ovarian): > 100 µM
GI50 (SN12C renal): > 100 µM
TGI (SN12C renal): > 100 µM
TGI (SNB-19 CNS): > 100 µM
TGI (SNB-75 CNS): > 100 µM
TGI (SR leukemia): > 100 µM
TGI (SW-620 colon): > 100 µM
GI50 (TK-10 renal): > 100 µM
TGI (TK-10 renal): > 100 µM
GI50 (U251 CNS): > 100 µM
TGI (U251 CNS): > 100 µM
GI50 (UACC-257 melanoma): > 100 µM
TGI (UACC-257 melanoma): > 100 µM
GI50 (UACC-62 melanoma): 36 µM
TGI (UACC-62 melanoma): > 100 µM
GI50 (UO-31 renal): 32.3 µM
TGI (UO-31 renal): > 100 µM
